Measured values reported in patent US20260191998A1, “INDOLE PHTHALOCYANINE COMPOUND, PREPARATION METHOD THEREFOR, AND USE THEREOF IN TUMOR DIAGNOSIS IMAGING” (JIANGSU YAHONG MEDITECH CO., LTD., priority 2022, published 2026).

Test: UV-VIS absorption spectra (optical property test)
Assay type: physicochemical
Details: 10 μM, DMSO solution; for Absorbance × 10^4: at maximum absorption peak
Experimental: The UV-VIS absorption spectra of the compounds (10 μM, DMSO solution) were detected using Shimadzu UV2600 spectrophotometer, and the maximum absorption peak and absorbance of each compound were obtained.

| Compound | Absorbance × 10^4 | Absorption peak [nm] |
| --- | --- | --- |
| C[n+]1cccc2c1N=C(/C=C/C1=C(Cl)C(=C/C=C3/N(CCCCCC(=O)O)c4ccccc4C3(C)C)/CC1)C2(C)C [Example 63, 2-((E)-2-((E)-3-(2-((E)-1-(5-carboxypentyl)-3,3-dimethylindolin-2-ylidene)ethenyl)-2-chlorocyclopent-1-en-1-yl)ethenyl)-3,3,7-trimethyl-3H-pyrrolo[2,3-b]pyridin-7-ium Chloride] | 0.31 |  |
| CC1(C)C(/C=C/C2=C(Cl)C(=C/C=C3/N(CCCCCC(=O)O)c4ccccc4C3(C)C)/CCC2)=[N+](CCO)c2ccccc21 [Example 49, 2-((E)-2-((E)-3-(2-((E)-1-(5-carboxypentyl)-3,3-dimethylindolin-2-ylidene)ethenyl)-2-chlorocyclohex-1-en-1-yl)ethenyl)-1-(2-hydroxyethyl)-3,3-dimethyl-3H-indol-1-ium Chloride] | 2.3 |  |
| C[n+]1cccc2c1N=C(/C=C/C1=C(Cl)C(=C/C=C3/N(CCCCCC(=O)O)c4ccccc4C3(C)C)/CCC1)C2(C)C [Example 64, 2-((E)-2-((E)-3-(2-((E)-1-(5-carboxypentyl)-3,3-dimethylindolin-2-ylidene)ethenyl)-2-chlorocyclohex-1-en-1-yl)ethenyl)-3,3,7-trimethyl-3H-pyrrolo[2,3-b]pyridin-7-ium Chloride] | 0.5 |  |
| CC[N+]1=C(/C=C/C2=C(Sc3ccccc3)C(=C/C=C3/N(CCCCCC(=O)Oc4ccccc4)c4ccccc4C3(C)C)/CC2)C(C)(C)c2ccccc21 [Example 101] | 1.971 | 836.5 |
| 5-carboxy-2-((E)-2-((E)-2-chloro-3-(2-((E)-3,3-dimethyl-1-(6-oxo-6-phenoxyhexyl)indolin-2-ylidene)ethenyl)cyclohex-1-en-1-yl)ethenyl)-1-ethyl-3,3-dimethyl-3H-indol-1-ium 2,2,2-trifluoroacetate [Example 118] | 1.73 |  |
| CC[N+]1=C(/C=C/C2=C(Oc3ccc(NC(=O)/C=C/CN(C)C)cc3)C(=C/C=C3/N(CCCCCC(=O)Oc4c(C)cccc4C)c4ccccc4C3(C)C)/CCC2)C(C)(C)c2ccccc21.[Cl-] [Example 115] | 2.24 |  |
| CC[N+]1=C(/C=C/C2=C(Cl)C(=C/C=C3/N(CCCCC(=O)NCCCNC(=O)CCCCN4/C(=C/C=C5\CCCC(/C=C/C6=[N+](CC)c7ccccc7C6(C)C)=C5Cl)C(C)(C)c5ccccc54)c4ccccc4C3(C)C)/CCC2)C(C)(C)c2ccccc21.[Cl-].[Cl-] [Example 82] | 3.686 | 793.5 |
| CC[N+]1=C(/C=C/C2=C(Cl)C(=C/C=C3/N(CCCCCC(=O)Oc4ccccc4)c4ccc5ccccc5c4C3(C)C)/CC2)C(C)(C)c2c1ccc1ccccc21 [Example 1A, 2-((E)-2-((E)-2-chloro-3-((E)-2-(1,1-dimethyl-3-(6-oxo-6-phenoxyhexyl)-1,3-dihydro-2H-benzo[e]indol-2-ylidene)ethenyl)cyclopent-1-en-1-yl)ethenyl)-3-ethyl-1,1-dimethyl-1H-benzo[e]indol-3-ium Chloride] | 2.82 | 860 |
| CC1(C)C(/C=C/C2=C(Cl)C(=C/C=C3/N(CCC(=O)O)c4ccccc4C3(C)C)/C[N+](C)(C)C2)=[N+](CCC(=O)O)c2ccccc21 [Example 17, 1-(2-carboxyethyl)-2-((E)-2-((E)-5-(2-((E)-1-(2-carboxyethyl)-3,3-dimethylindolin-2-ylidene)ethenyl)-4-chloro-1,1-dimethyl-1,2,5,6-tetrahydropyridin-1-ium-3-yl)ethenyl)-3,3-dimethyl-3H-indol-1-ium Ditrifluoroacetate] | 0.88 | 766 |
| CC[N+]1=C(/C=C/C2=C(Cl)C(=C/C=C3/N(CCCCCC(=O)Oc4ccccc4)c4ccccc4C3(C)C)/C[N+](C)(C)C2)C(C)(C)c2ccccc21 [Example 28] | 1.856 | 766 |
